Data set [1] has as its target Virion infectivity factor (Human immunodeficiency virus type 1 group M subtype B (isolate NY5)(HIV-1), UniProt P12504). The experiment in a line: Inhibition of HIV1 Vif. On the set-up: species or system Human immunodeficiency virus 1.
Data set [2] can be described thus: Inhibition of HIV1 Vif to human A3G protein-protein interaction.
In data set [3] the test system is Hepatitis B virus. The experiment in a line: Antiviral activity against wild type HBV infected in HepG2.2.15 cells assessed as reduction in viral replication. It is filed as functional, organism-based.
The test system of data set [4] is Hepatitis B virus. The experiment in a line: Antiviral activity against HBV infected in ETV/3TC-resistant HepG2.A64 cells assessed as reduction in viral replication. The data set is classed as functional, organism-based.
Data set [5] concerns Human immunodeficiency virus 1. The experiment in a line: Antiviral activity against HIV1 infected in CEM cells assessed as reduction in viral replication measured on day 7 postinfection by ELISA. The following applies: Human immunodeficiency virus 1, CCRF-CEM, 168 h. It is filed as functional, organism-based.
In data set [6] the test system is Human immunodeficiency virus 1. The experiment in a line: Antiviral activity against HIV1 Bal infected in PBMCs assessed as reduction in viral replication measured after 7 days post infection. It is filed as functional, organism-based. The following applies: Human immunodeficiency virus 1, Bal, PBMC, 168 h.
A short description of data set [7]: Cytotoxicity against human PBMCs. The settings on record: read-out: TC50 (the source's name). The data set is classed as toxicity, cell-based, PBMC.
The nature of data set [8]: Cytotoxicity against HEK293T cells. It is filed as toxicity, cell-based, HEK-293T. The settings on record: human.
The subject of data set [9] is Human immunodeficiency virus 1. The experiment in a line: Antiviral activity against HIV1 infected in H9 cells assessed as reduction in viral replication measured after 4 days post infection. It is filed as functional, organism-based. The settings on record: Human immunodeficiency virus 1, H9, 96 h.
A short description of data set [10]: Inhibition of HIV1 GST-tagged Vif (1 to 94 residues) to biotinylated-A3G (110 to 148 residues) (unknown origin) protein-protein interaction by TR-FRET assay.
Data set [11] concerns Human immunodeficiency virus 1. The experiment in a line: Antiviral activity against HIV-1 Bal infected in PBMCs. The data set is classed as functional, organism-based. The following applies: Human immunodeficiency virus 1, Bal, PBMC.
Data set [12] deals with Human immunodeficiency virus 1. The experiment in a line: Antiviral activity against HIV1 infected in C8166 cells assessed as reduction in viral replication measured after 3 days by ELISA. It is filed as functional, organism-based. The settings on record: Human immunodeficiency virus 1, C8166, 72 h.
For data set [13], the system named is Human immunodeficiency virus 2. The experiment in a line: Antiviral activity against HIV2 infected in C8166 cells assessed as reduction in viral replication measured after 3 days by ELISA. The following applies: Human immunodeficiency virus 2, C8166, 72 h. It is filed as functional, organism-based.
Data set [14] has as its system Human immunodeficiency virus 1. The experiment in a line: Antiviral activity against HIV1 infected in PBMCs assessed as reduction in viral replication measured after 7 days by ELISA. The settings on record: Human immunodeficiency virus 1, PBMC, 168 h. The data set is classed as functional, organism-based.
Data set [15] relates to Human immunodeficiency virus 2. The experiment in a line: Antiviral activity against HIV2 infected in PBMCs assessed as reduction in viral replication measured after 7 days by ELISA. The data set is classed as functional, organism-based. The following applies: Human immunodeficiency virus 2, PBMC, 168 h.
For the next data set, the system named is HEK293T. The experiment in a line: Inhibition of HIV1 Vif expressed in HEK293T cells to cul5 (unknown origin) protein-protein interaction. The data set is classed as cell-based.
Data set [16] has as its system Human immunodeficiency virus 1. The experiment in a line: Antiviral activity against HIV1 infected in HEK293T cells cotransfected with pNL4-3 plus A3G vector assessed as reduction in viral replication measured after 48 hrs post transfection by MAGI assay. The data set is classed as functional, organism-based. The following applies: Human immunodeficiency virus 1, HEK-293T.

In data set [17] the test system is Human immunodeficiency virus 1. The experiment in a line: Antiviral activity against HIV-1 NL4-3 infected in HEK293T cells cotransfected with VSVG and hA3G-HA assessed as reduction in viral replication preincubated for 36 hrs followed by SubT1 cells infection for 48 hrs by luciferase based assay. It is filed as functional, organism-based. The following applies: Human immunodeficiency virus 1, NL4-3, HEK-293T.

Data set [18] has as its system Human immunodeficiency virus 1. The experiment in a line: Antiviral activity against HIV-1 NL4-3 infected in HEK293T cells cotransfected with Vif and hA3G-HA assessed as fold increase in A3G-HA level at 10 uM measured after 36 hrs by Western blotting analysis. It is filed as functional.

Active and inactive are the calls of the source. The rule behind the calls is not given here. Where only a bound is given, the exact number is not on record here.

Chain of Virion infectivity factor (P12504 1-150 limits assumed): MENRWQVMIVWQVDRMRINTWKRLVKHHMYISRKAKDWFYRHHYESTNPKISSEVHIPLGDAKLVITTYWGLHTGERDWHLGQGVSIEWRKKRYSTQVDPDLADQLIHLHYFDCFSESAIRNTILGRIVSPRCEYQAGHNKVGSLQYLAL
Chain of Virion infectivity factor (P12504 151-192 limits assumed): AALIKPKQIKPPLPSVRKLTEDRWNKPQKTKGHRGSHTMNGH

As to `COc1ccccc1NC(=O)c1ccccc1Sc1ccc([N+](=O)[O-])cc1`, in data set [1], the IC50 came out at 6000 nM.
`COc1ccc(C(=O)Oc2cc(OC)c(OC)c(OC)c2)cc1NC(=O)C(C)Br` (stereo not drawn) returned an IC50 in [2] of 17 nM.
For the molecule `CNc1cc(C(=O)Nc2ccc(Cl)cc2)ccc1OC`, the values for the half-inhibitory concentration (IC50) with Hepatitis B virus [3] and in the data set with Hepatitis B virus [4] were 1990 nM and 3300 nM, respectively.
As to `CC(C)(C)OC(=O)NCCCC[C@@H](NC(=O)OCc1ccccc1)C(=O)Oc1ccc([N+](=O)[O-])cc1`, the IC50 in data set [5] was determined as 8160 nM.
In the case of `COc1cc(-c2ccc(Nc3ccccc3C(=O)O)c(OC)c2)ccc1Nc1ccccc1C(=O)O`, in data set [6], the IC50 amounted to 1370 nM. In addition, in data set [7], the CC50 was greater than 100000 nM.
The molecule `Cc1noc(C)c1CSc1nc2ccccc2n1-c1ccccc1` came in with an IC50 in [8] of 30000 nM.
In the case of `N#C/C(=C\c1ccc(Br)nc1)c1nc2ccccc2[nH]1`, the IC50 in data set [9] worked out at 1010 nM.
In the case of `C/C(=C/C(=O)c1cccnc1)Nc1ccc(O)cc1`, the concentration for half-maximal inhibition (IC50) in [6] turned out to be 8400 nM; in data set [10], 2180 nM; in [11], 4200 nM. In [7], the CC50 was greater than 100000 nM.
With `CCCCCCCCCCCCCCCCCCCCCCC(=O)O[C@@H]1[C@@H](C)[C@@]2(O)[C@@H](C=C(COC(C)=O)C[C@]3(O)C(=O)C(C)=C[C@@H]23)[C@@H]2C(C)(C)[C@]12O`, the IC50 in data set [12], in [13], in [14] and in [15] was 100 nM in each case.
Take `c1ccc(CN(CCN(Cc2ccccn2)Cc2ccccn2)Cc2ccccn2)nc1`: the inhibition result in the data set on HEK293T was “Active”.
`CCOC(=O)c1cc(C(=O)c2ccc3ccccc3c2)n2ccc(C(=O)c3ccccc3)cc12`: the IC50 in [16] amounted to 25000 nM.
Turning to `COc1ccc(C(=O)Nc2cc(OC)c(OC)c(OC)c2)cc1NC(=O)C(C)Br` (stereo not drawn), the IC50 in data set [2] came to 17 nM.
`CCCCn1c(SCc2c(C)noc2C)nc2cc(S(N)(=O)=O)ccc21` displayed an IC50 in data set [8] of 30000 nM.
For `Fc1ccc(OCC(Cn2ccnc2)c2ccc(Cl)cc2Cl)cc1` (stereo not drawn), the IC50 in [17] stood at 8630 nM. Also, the “fold change (FC)” value in data set [18] is recorded as 1.7.

(Values after ChEMBL document CHEMBL5385879, “Various strategies for developing APOBEC3G protectors to circumvent human immunodeficiency virus type 1” (Eur J Med Chem, 2023).)
